Assays:
Type in all cases: in vivo, pig
[1] = system: nucleus pulposus of the L3-4 intervertebral disc; assay: Flexion stiffness of the injected L3-4 intervertebral disc, Example 1; conditions: injected L 3-4 vs non-injected L 2-3 and L 4-5; seven days
Procedure: Access to the L4-5 intervertebral disc was obtained through a lateral incision between the lowest rib and the iliac crest on the left side of each pig. Thereafter, the L3-4 intervertebral disc was incised with a scalpel. […] The composition was injected in a single step at a single occasion.

[2] = system: nucleus pulposus of the L3-4 intervertebral disc; assay: Dimension of the disc space after injection, Example 1
Procedure: 110. performing a cross-section of the discs and measuring the length (anterio-posterior direction) and the width (bilateral direction) of the disc space. Two pigs were anesthetized and placed on their right side. Access to the L4-5 intervertebral disc was obtained through a lateral incision between the lowest rib and the iliac crest on the left side of each pig. Thereafter, the L3-4 intervertebral disc was incised with a scalpel. […] The composition was injected in a single step at a single occasion. The intervertebral discs (L2-3, L3-4, L4-5) were cross-sectioned and the length of the disc space (anterio-posterior direction) and the width (bilateral direction) of the disc space were measured by calipers. In FIGS. 5 and 6, an intervertebral disc is schematically shown in cross-section. The intervertebral disc comprises the annulus fibrosus 10, and a disc space defined by the annulus fibrosus and comprising the nucleus pulposus 11.

[3] = Tolerability and adverse reactions after intradiscal injection, Example 1
Procedure: Two pigs were anesthetized and placed on their right side. Access to the L4-5 intervertebral disc was obtained through a lateral incision between the lowest rib and the iliac crest on the left side of each pig. Thereafter, the L3-4 intervertebral disc was incised with a scalpel.
The composition was injected in a single step at a single occasion.
At harvest, the pigs were killed.
The injection site was observed by the naked eye. […] The segment of the vertebral column extending from the lumbar vertebra L2 to the sacral vertebra S1 was removed. The facet joints were removed, thus allowing full flexibility of the discs with no restraints from other structures.

[4] = injected L 3-4 vs non-injected L2-3, L4-5, seven days

For `CC(O)C(=O)O` (stereo not drawn) [lactic acid], which “Balanced value (flexion stiffness) of injected discs compared with non-injected adjacent discs” value [1] is on record?
Its value is “much smaller balanced value”.

What about the “Cross-sectional area of the disc space compared with non-injected discs” value ([2]; FIG. 7, injected L3-4 vs non-injected L2-3 and L4-5, naked eye) of the same molecule?
The value was “much smaller cross-sectional area”.

And the “Average anterio-posterior length of the disc space compared with non-injected discs” value [2, 4]?
Its value is “significantly lower”.

What about the “Average bilateral width of the disc space compared with non-injected discs” value [2, 4] of the same molecule?
The value was “significantly lower”.

And the “Adverse reaction such as decreased mobility or vocalization” value ([3]; both pigs, period of seven days until harvest, 0.2 mL of 1.34 mol/L, pH 1.8, into L3-4 disc)?
The value was “no adverse reaction”.

What about the “Adverse reaction at the injection site, such as bleedings, inflammation or necrosis” value ([3]; naked eye at harvest, seven days after injection) of the same molecule?
Its value is “No adverse reaction at the injection site”.

Reference: patent US10265284B2, “Composition for use in the treatment of intervertebral disc-related pain” (STAYBLE THERAPEUTICS AB, priority 2015, dated 2019)
